Results reported in publication PMC9236245, “Glycyrrhiza uralensis promote the metabolism of toxic components of Aconitum carmichaeli by CYP3A and alleviate the development of chronic heart failure” (PLoS ONE, 2022).
Where “and” joins values, the source holds several entries; their conditions need not be identical. Identical values can stand only once.

What was measured:
[1] = Metabolism of AC, MA and HA in rat liver microsomes by HPLC; assay type: in vitro ADME; settings: NADPH
Method: Agilent C18 column (4.60 mm × 150 mm, 5μm), mobile phase A was 20 mmol / L ammonium acetate and 0.1% formic acid aqueous solution, mobile phase B was methanol, isocratic elution, A: B = 60:40, flow rate was 1 ml / min, detection wavelength was 240 nm, column temperature was 30°C, injection volume was 20 μL.
1 mg / ML microsome 100 μL, PBS 75 μL and aconitine alkaloids 5 μL (AC, MA and HA: 1 mmol / L) were added. 20 μL NADPH (10 mmol / L) was added to start the reactionand, AC and HA were incubated for 90 min, MA were incubated for 120 min. The reaction was terminated by adding 200 μL glacial acetonitrile, 12 000 r / min at 4°C for 10 min, and 20 μL supernatant was used for HPLC.

[2] = Plasma concentration of AC, MA and HA in rats by LC-MS/MS; assay type: in vivo, rat; set-up: Plasma concentration: unit not given here; settings: for plasma concentration with compatibility of Glycyrrhizae and Aconitum vs Aconitum alone: 2 mL/kg by gavage; for Plasma concentration: single animals
Method: 12 SD rats were randomly divided into Aconitum and Glycyrrhizae combind with Aconitum group, 6 rats in each group, 2 mL / kg was given by gavage respectively.

in vitro = settings: SD, rat, microsomes
[3] = Metabolic stability (t1/2, CLint) of AC, MA and HA in RLMs of pretreated rats; settings: SD, rat, microsomes
CYP3A2 mRNA = CYP3A2 mRNA expression in rat liver after 14 days dosing (RT-PCR); assay type: in vivo; settings: positive induction 0.08 g/kg/D, single replicates
Excerpt: (§1) All animal procedures, including killing, were approved by the Institutional Animal Care and Use Committee at Medical College of Shanghai University of TCM. 25 SD rats, weighing 180–200 g, were purchased from Shanghai SLAC Laboratory Animal company and fed in SPF environmental condition. The rats were randomly divided into negative control, phenobarbital positive induction (0.08 g / kg / D) and Glycyrrhiza groups with different concentrations (0.33 g / kg / D, 1 g / kg / D and 3 g / kg / D), with 5 rats in each group, intragastric administration for 14 days. The phenobarbital induced group was given intraperitoneal injection three days before treatment. The animals were killed by CO2 asphyxiation, liver microsomes were prepared and were used to detect the expression of CYP3A1 / 2 mRNA in liver tissue.
(§2) Total RNA was extracted using Trizol reagent according to the manufacturer’s instructions. 1μg of total RNA was transcribed to cDNA using the PrimeScriptTM RT Master Mix kit (TaKaRa, China). Quantitative RT-PCR was performed in a reaction volume of 20μL cDNA on ABI system (Applied Biosystems, Life Technologies). The average cycle thresholds (Ct) were employed to quantify fold-change. The 2^-△△CT method was reported to calculate relative gene expression levels.

CYP3A1 mRNA = CYP3A1 mRNA expression in rat liver after 14 days dosing (RT-PCR); assay type: in vivo; settings: positive induction 0.08 g/kg/D, single replicates
Excerpt: as §1, §2

CHF rat model = assay: ATP, ADP and AMP in left ventricular myocardium (HPLC) of ADR-induced CHF rats; assay type: in vivo; settings: 5 mL/kg/D gavage 4 weeks
Method: According to reference, the rat model of CHF was established by intraperitoneal injection of ADR (2.5 mg / kg) once a week for six weeks. 6 weeks later, the rats were randomly divided into model group, Aconitum (0.3 g / mL), Glycyrrhizae combind with Aconitum (0.6 g / mL) and Captopril (1.25 mg / mL) group. Each treatment group was given 5 mL / kg / D by gavage for 4 weeks, the normal and model group were given the same volume of distilled water by gavage. After the last administration, the rats were killed by CO2 asphyxia, and the indexes were determined.
Weighed 100 mg of left ventricular myocardium of rats, cut into pieces, added 500 μL 4.2% perchloric acid, homogenized in ice bath, 3 000 r / min, 4°C for 15 min. Took 200 μL of the supernatant, added 135 μL of 1 mol / L NaOH, adjusted the pH to about 6.0, shaked and mixed, 8 000 r / min, 4°C for 10 min, and took 20 μL of the supernatant for HPLC analysis. There was a good linear relationship between the peak area measured by HPLC and the concentrations of ATP, AMP and ADP, and the content was calculated according to the standard curve.

[4] = Aconitum 2 mL/kg gavage, 10 min
[5] = Aconitum 2 mL/kg gavage, 20 min
[6] = Aconitum 2 mL/kg gavage, 30 min
[7] = Aconitum 2 mL/kg gavage, 45 min
[8] = Aconitum 2 mL/kg gavage, 60 min
[9] = Aconitum 2 mL/kg gavage, 90 min
[10] = Aconitum 2 mL/kg gavage, 120 min
[11] = Aconitum 2 mL/kg gavage, 240 min
[12] = Aconitum 2 mL/kg gavage, 360 min
[13] = Aconitum 2 mL/kg gavage, 480 min
[14] = Glycyrrhizae + Aconitum 2 mL/kg gavage, 10 min
[15] = Glycyrrhizae + Aconitum 2 mL/kg gavage, 20 min
[16] = Glycyrrhizae + Aconitum 2 mL/kg gavage, 30 min
[17] = Glycyrrhizae + Aconitum 2 mL/kg gavage, 45 min
[18] = Glycyrrhizae + Aconitum 2 mL/kg gavage, 60 min
[19] = Glycyrrhizae + Aconitum 2 mL/kg gavage, 90 min
[20] = Glycyrrhizae + Aconitum 2 mL/kg gavage, 120 min
[21] = Glycyrrhizae + Aconitum 2 mL/kg gavage, 240 min
[22] = Glycyrrhizae + Aconitum 2 mL/kg gavage, 360 min
[23] = Glycyrrhizae + Aconitum 2 mL/kg gavage, 480 min
[24] = RLMs of rats pretreated with Glycyrrhizae 0.33 g/kg
[25] = RLMs of rats pretreated with Glycyrrhizae 1 g/kg
[26] = RLMs of rats pretreated with Glycyrrhizae 3 g/kg
[27] = RLMs of rats pretreated with Phenobarbital 0.08 g/kg
[28] = t1/2, RLMs of rats pretreated with Glycyrrhizae 0.33 g/kg
[29] = t1/2, RLMs of rats pretreated with Glycyrrhizae 1 g/kg
[30] = t1/2, RLMs of rats pretreated with Glycyrrhizae 3 g/kg
[31] = t1/2, RLMs of rats pretreated with Phenobarbital 0.08 g/kg

Compound | metabolites produced in RLMs [1] | plasma concentration with compatibility of Glycyrrhizae and Aconitum vs Aconitum alone [2] | Plasma concentration [2, 4] | Plasma concentration [2, 5] | Plasma concentration [2, 6] | Plasma concentration [2, 7] | Plasma concentration [2, 8] | Plasma concentration [2, 9] | Plasma concentration [2, 10] | Plasma concentration [2, 11] | Plasma concentration [2, 12] | Plasma concentration [2, 13] | Plasma concentration [2, 14] | Plasma concentration [2, 15] | Plasma concentration [2, 16] | Plasma concentration [2, 17] | Plasma concentration [2, 18] | Plasma concentration [2, 19] | Plasma concentration [2, 20] | Plasma concentration [2, 21] | other results
COC[C@@]12CC[C@H](OC)[C@]34C(C([C@H](OC)[C@H]13)[C@]1(OC(C)=O)[C@H]3[C@@H](OC(=O)c5ccccc5)[C@](O)(C[C@H]34)[C@@H](OC)[C@@H]1O)N(C)C2 [HA, hypaconitine] | two metabolites | significantly lower | 0.964 and 1.77 and 0.583 and 0.492 and 0.28 | 1.07 (2×) and 1.95 and 0.668 and 0.566 | 1.2 and 2.66 and 1.06 and 0.923 and 0.551 | 1.22 and 2.65 and 1.35 and 0.88 and 0.451 | 1.83 and 3.39 and 1.29 and 0.737 and 0.573 | 2.02 and 2.54 and 1.07 and 0.724 and 0.474 | 1.44 and 2.32 and 0.775 and 0.501 and 0.434 | 0.658 and 0.936 and 0.168 and 0.375 and 0.151 | 0.287 and 0.417 and 0.0407 and 0.175 and 0.0302 | 0.104 and 0.179 and 0.00087 and 0.0398 and 0 | 0.519 and 1.06 and 0.945 and 0.416 and 0.07 | 0.52 and 1.66 and 1.4 and 0.661 and 0.18 | 0.774 and 1.59 and 1.79 and 1.06 and 0.53 | 1.02 and 1.61 and 1.74 and 0.809 and 0.75 | 1.15 and 1.58 and 1.52 and 0.84 and 0.77 | 0.845 and 1.4 and 1.33 and 0.925 and 0.66 | 0.763 and 1.16 and 1.07 and 0.744 and 0.75 | 0.288 and 0.492 and 0.287 and 0.316 and 0.924 | Plasma concentration [2, 22]: 0.34 and 0.239 and 0.0767 and 0.225 and 0.0462; Plasma concentration [2, 23]: 0 and 0.104 and 0.0428 and 0.0921 and 0.181; microsomal CLint (in vitro; RLMs of Control rats): 10.5 ± 0.23 µL/min/mg; microsomal CLint (in vitro; [24]): 12.1 ± 0.23 µL/min/mg; microsomal CLint (in vitro; [25]): 13.6 ± 0.4 µL/min/mg; microsomal CLint (in vitro; [26]): 11.6 ± 0.4 µL/min/mg; microsomal CLint (in vitro; [27]): 14 ± 0.4 µL/min/mg; half-life (in vitro; t1/2, RLMs of Control rats): 4.39 ± 0.095 h; half-life (in vitro; [28]): 3.81 ± 0.0717 h; half-life (in vitro; [29]): 3.4 ± 0.1 h; half-life (in vitro; [30]): 3.99 ± 0.138 h; half-life (in vitro; [31]): 3.3 ± 0.0943 h
CCN1C[C@]2(COC)[C@H](O)C[C@H](OC)[C@@]34[C@@H]5C[C@@]6(O)[C@H](OC(=O)c7ccccc7)[C@@H]5[C@@](OC(C)=O)([C@@H]([C@H](OC)[C@H]23)[C@@H]14)[C@@H](O)[C@@H]6OC [AC, aconitine] | three metabolites (A1-A3) | significantly lower | 0.0562 and 0.0808 and 0.0292 and 0.0385 and 0.0141 | 0.0945 and 0.121 and 0.0589 and 0.0443 and 0.0407 | 0.0925 and 0.117 and 0.0557 and 0.0722 and 0.05 | 0.118 and 0.156 and 0.082 and 0.0566 and 0.0273 | 0.13 and 0.176 and 0.0973 and 0.0545 and 0.0474 | 0.143 and 0.138 and 0.108 and 0.0529 and 0.0439 | 0.0793 and 0.127 and 0.0603 and 0.0355 and 0.024 | 0.0629 and 0.0516 and 0.0251 and 0.0305 and 0.0211 | 0.0287 and 0.0253 and 0.00749 and 0.0187 and 0.0173 | 0.0164 and 0.00823 and 0.0095 and 0.00724 and 0.00602 | 0.0175 and 0.0293 and 0.0191 and 0.0122 and 0.0147 | 0.0115 and 0.059 and 0.0448 and 0.017 and 0.0239 | 0.0218 and 0.0596 and 0.0401 and 0.018 and 0.0426 | 0.0355 and 0.0389 and 0.0637 and 0.0227 and 0.0397 | 0.0309 and 0.0518 and 0.0337 and 0.0343 and 0.0443 | 0.018 and 0.039 and 0.0371 and 0.0238 and 0.0457 | 0.0163 and 0.0373 and 0.0236 and 0.0131 and 0.0446 | 0.00197 and 0.0253 and 0.00871 and 0.00772 and 0.0267 | microsomal CLint at 25 µM ([3]; RLMs of Control rats): 10.8 ± 0.4 µL/min/mg; microsomal CLint at 25 µM [3, 24]: 14.7 ± 0.23 µL/min/mg; microsomal CLint at 25 µM [3, 25]: 15.5 ± 0.46 µL/min/mg; microsomal CLint at 25 µM [3, 26]: 11.6 ± 0.4 µL/min/mg; microsomal CLint at 25 µM [3, 27]: 16.3 ± 0.61 µL/min/mg; half-life at 25 µM ([3]; t1/2, RLMs of Control rats): 4.28 ± 0.159 h; half-life at 25 µM [3, 28]: 3.15 ± 0.05 h; half-life at 25 µM [3, 29]: 2.99 ± 0.0877 h; half-life at 25 µM [3, 30]: 3.99 ± 0.138 h; half-life at 25 µM [3, 31]: 2.84 ± 0.108 h; Plasma concentration [2, 22]: 0.00413 and 0.00482 and 0 and 0.00225 and 0.0062; Plasma concentration [2, 23]: 0 (4×) and 0.00207
CCC1(c2ccccc2)C(=O)NC(=O)NC1=O [Phenobarbital] |  |  |  |  |  |  |  |  |  |  |  |  |  |  |  |  |  |  |  |  | CYP3A2 mRNA (CYP3A2 mRNA): 3.986 and 3.344 and 3.449; CYP3A1 mRNA (CYP3A1 mRNA): 8.832 and 7.88 and 8.097
C[C@H](CS)C(=O)N1CCC[C@H]1C(=O)O [captopril, Captopril] |  |  |  |  |  |  |  |  |  |  |  |  |  |  |  |  |  |  |  |  | ADP level in left ventricular myocardium, difference vs model group (CHF rat model): -0.07185 ± 0.02716
